The values below come from patent publication US7138361B2, “Herbicidal heterocycles” (E. I. du Pont de Nemours and Company, priority 2000, dated 2006).

Type in all cases: in vivo
Test [1] has as its system velvetleaf (Abutilon theophrasti). The test can be described thus: Test A postemergence, sprayed to runoff. Details: scale not given here. The conditions noted are these: approx. eleven days. On the procedure: (§1) Seeds of barnyardgrass (Echinochloa crus-galli), crabgrass (Digitaria spp.), giant foxtail (Setaria viridis), morning glory (Ipomoea spp.), redroot pigweed (Amaranthus retroflexus) and velvetleaf (Abutilon theophrasti) were planted into a sandy loam soil and treated preemergence by soil drench with test chemicals formulated in a non-phytotoxic solvent mixture which included a surfactant. At the same time, these crop and weed species were also treated postemergence sprayed to runoff with test chemicals formulated in the same manner. Plants ranged in height from two to eighteen cm and were in the one- to two-leaf stage for the postemergence treatment. Treated plants and untreated controls were maintained in a greenhouse for approximately eleven days, after which time all treated plants were compared to untreated controls and visually evaluated for injury. Plant response ratings, summarized in Table A, are based on a 0 to 10 scale where 0 is no effect and 10 is complete control. A dash (-) response means no test results.

Test [2] concerns morning glory (Ipomoea spp.). The test can be described thus: Test A postemergence, sprayed to runoff. Details: scale not given here. Particulars: Morningglory, approx. eleven days. As to the method:
as §1

The test system of test [3] is barnyardgrass (Echinochloa crus-galli). The test can be described thus: Test A postemergence, sprayed to runoff. Particulars: approx. eleven days. As to the method: as §1
Test [4] deals with crabgrass (Digitaria spp.). Nature of the test: Test A postemergence, sprayed to runoff. The conditions noted are these: approx. eleven days. On the procedure: as §1
Test [5] concerns giant foxtail (Setaria viridis). The test can be described thus: Test A postemergence, sprayed to runoff. The conditions noted are these: approx. eleven days. On the procedure:
as §1

The test system of test [6] is redroot pigweed (Amaranthus retroflexus). The test can be described thus: Test A postemergence, sprayed to runoff. The conditions noted are these: approx. eleven days. On the procedure:
as §1

Test [7] concerns barnyardgrass (Echinochloa crus-galli). Nature of the test: Test A preemergence, soil drench. The conditions noted are these: approx. eleven days. On the procedure:
as §1

The subject of test [8] is crabgrass (Digitaria spp.). The test can be described thus: Test A preemergence, soil drench. The conditions noted are these: approx. eleven days. As to the method:
as §1

Test [9] deals with giant foxtail (Setaria viridis). Nature of the test: Test A preemergence, soil drench. The conditions noted are these: approx. eleven days. As to the method: as §1
Test [10] has as its system velvetleaf (Abutilon theophrasti). Nature of the test: Test A preemergence, soil drench. Particulars: approx. eleven days. As to the method: as §1
The test system of test [11] is redroot pigweed (Amaranthus retroflexus). Nature of the test: Test A preemergence, soil drench. Particulars: approx. eleven days. On the procedure:
as §1

Test [12] relates to morning glory (Ipomoea spp.). Nature of the test: Test A preemergence, soil drench. Particulars: Morningglory, approx. eleven days. As to the method:
as §1

Test [13] has as its system chickweed (Stellaria media). Nature of the test: Test C postemergence. An outline of the steps:
(§2)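 Response scores (0 no effect to 100 complete control) came from visual comparison with untreated controls 12 to 14 days after treatment. Preemergence application was made to seeded soil; postemergence, to plants at the 1- to 4-leaf stage.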

Test [14] has as its system woolly cupgrass (Eriochloa villosa). The test can be described thus: Test C postemergence. An outline of the steps: as §2
Test [15] has as its system Surinam grass (Brachiaria decumbens). Nature of the test: Test C postemergence. An outline of the steps:
as §2

Where [16] appears, read: Rate 125 g/ha, scale 0 to 100, 0 no effect, 100 complete control.
[17] abbreviates: Rate 250 g/ha, scale 0 to 100 (0 no effect, 100 complete control).
The mark [18] stands for this setting: Rate 500 g/ha, scale 0 to 100 (0 no effect, 100 complete control).

On to `CC(C)(C)c1ccn(C2SCN(c3cccc(C(F)(F)F)c3)C2=O)n1` (centres unmarked) [Compound 1], for which the “Plant response rating (visual injury vs untreated controls)” value in test [1] (Rate 500 g/ha) stood at 10; in test [1] (Rate 2000 g/ha), 30; in test [2] (Rate 500 g/ha), 90; in test [2] (Rate 2000 g/ha) it was 90; in [3] (Rate 500 g/ha) it was 60; in test [3] (Rate 2000 g/ha) it was 90. Also, the “Plant response rating (visual injury vs untreated controls)” value in [4] (Rate 500 g/ha) came to 10; in test [4] (Rate 2000 g/ha), 10; in test [5] (Rate 500 g/ha) it was 30; in test [5] (Rate 2000 g/ha) it was 30; in test [6] (Rate 500 g/ha) it was 20; in [6] (Rate 2000 g/ha), 90. Moreover, the “Plant response rating (visual injury vs untreated controls)” value in test [7] (Rate 500 g/ha) stood at 90; in [7] (Rate 2000 g/ha), 100; in test [8] (Rate 500 g/ha) it was 90; in test [8] (Rate 2000 g/ha) it was 100; in [9] (Rate 500 g/ha) it was 90; in [9] (Rate 2000 g/ha), 100. The “Plant response rating (visual injury vs untreated controls)” value in test [10] (Rate 500 g/ha) was 10; in test [10] (Rate 2000 g/ha), 70; in [11] (Rate 500 g/ha) it was 100; in test [11] (Rate 2000 g/ha) it was 100; in test [12] (Rate 500 g/ha), 10; in [12] (Rate 2000 g/ha), 80.
`CC1(C)CCc2cn(C3CCN(c4cccc(C(F)(F)F)c4)C3=O)nc21` (centres unmarked) [Compound 10]: the “Plant response rating (visual injury vs untreated controls)” value in [1] (Rate 500 g/ha) amounted to 0; in [1] (Rate 2000 g/ha), 50; in [2] (Rate 500 g/ha), 10; in test [2] (Rate 2000 g/ha) it was 20; in test [3] (Rate 500 g/ha), 20; in test [3] (Rate 2000 g/ha), 10. The “Plant response rating (visual injury vs untreated controls)” value in test [4] (Rate 500 g/ha) worked out at 10; in test [4] (Rate 2000 g/ha) it was 10; in test [5] (Rate 500 g/ha) it was 10; in test [5] (Rate 2000 g/ha), 10; in test [6] (Rate 500 g/ha), 20; in test [6] (Rate 2000 g/ha), 100. Also, the “Plant response rating (visual injury vs untreated controls)” value in test [7] (Rate 500 g/ha) is 100; in test [7] (Rate 2000 g/ha), 100; in [8] (Rate 500 g/ha) it was 90; in test [8] (Rate 2000 g/ha) it was 100; in [9] (Rate 500 g/ha), 90; in test [9] (Rate 2000 g/ha), 100. The “Plant response rating (visual injury vs untreated controls)” value is 20 in [10] (Rate 500 g/ha); 10 in test [10] (Rate 2000 g/ha); 100 in [11] (Rate 500 g/ha); 100 in test [11] (Rate 2000 g/ha); 0 in test [12] (Rate 500 g/ha); 20 in test [12] (Rate 2000 g/ha).
Regarding `CC1CCc2cn(C3CCN(c4cccc(C(F)(F)F)c4)C3=O)nc21` (centres unmarked) [Compound 11], the “Plant response rating (visual injury vs untreated controls)” value in test [1] (Rate 500 g/ha) turned out to be 0; in [1] (Rate 2000 g/ha) it was 0; in [2] (Rate 500 g/ha) it was 10; in test [2] (Rate 2000 g/ha) it was 10; in [3] (Rate 500 g/ha), 20; in test [3] (Rate 2000 g/ha), 40. In addition, the “Plant response rating (visual injury vs untreated controls)” value is 0 in [4] (Rate 500 g/ha); 10 in [4] (Rate 2000 g/ha); 0 in [5] (Rate 500 g/ha); 50 in test [5] (Rate 2000 g/ha); 70 in [6] (Rate 500 g/ha); 90 in test [6] (Rate 2000 g/ha). The “Plant response rating (visual injury vs untreated controls)” value in test [7] (Rate 500 g/ha), in test [7] (Rate 2000 g/ha), in [8] (Rate 500 g/ha), in [8] (Rate 2000 g/ha), in test [9] (Rate 500 g/ha) and in test [9] (Rate 2000 g/ha) was 100 in each case. Also, the “Plant response rating (visual injury vs untreated controls)” value in test [10] (Rate 500 g/ha) is 0; in test [10] (Rate 2000 g/ha) it was 20; in [11] (Rate 500 g/ha), 100; in [11] (Rate 2000 g/ha), 100; in test [12] (Rate 500 g/ha), 0; in test [12] (Rate 2000 g/ha), 0.
On to `O=C1C(n2cc(Cl)c(C3CC3)n2)CCN1c1cccc(C(F)(F)F)c1` (centres unmarked) [Compound 12], for which the “Plant response rating (visual injury vs untreated controls)” value in test [1] (Rate 500 g/ha), in test [1] (Rate 2000 g/ha), in test [2] (Rate 500 g/ha), in test [2] (Rate 2000 g/ha), in test [3] (Rate 500 g/ha) and in test [3] (Rate 2000 g/ha) was 0 each time. Besides, the “Plant response rating (visual injury vs untreated controls)” value in test [4] (Rate 500 g/ha), in [4] (Rate 2000 g/ha), in test [5] (Rate 500 g/ha), in test [5] (Rate 2000 g/ha), in test [6] (Rate 500 g/ha) and in test [6] (Rate 2000 g/ha) was 0 in each case. Further, the “Plant response rating (visual injury vs untreated controls)” value amounted to 0 in [7] (Rate 500 g/ha); 0 in test [7] (Rate 2000 g/ha); 0 in [8] (Rate 500 g/ha); 60 in test [8] (Rate 2000 g/ha); 0 in test [9] (Rate 500 g/ha); 30 in test [9] (Rate 2000 g/ha). The “Plant response rating (visual injury vs untreated controls)” value was found to be 0 in test [10] (Rate 500 g/ha); 0 in test [10] (Rate 2000 g/ha); 0 in [11] (Rate 500 g/ha); 40 in test [11] (Rate 2000 g/ha); 0 in [12] (Rate 500 g/ha); 0 in [12] (Rate 2000 g/ha).
`CCCC(C)c1ccn(C2OCN(c3cccc(OC(F)(F)F)c3)C2=O)n1` (centres unmarked) [Compound 91]: the “Plant response rating, Chickweed” value in test [13] (Rate 62 g/ha, scale 0 to 100) is given as 70; in test [13] (setting [16]), 80; in [13] (setting [17]), 80; in [13] (setting [18]) it was 90. In addition, the “Plant response rating, Cupgrass, Woolly” value in test [14] (Rate 62 g/ha, scale 0 to 100) is recorded as 20; in [14] (setting [16]), 20; in test [14] (setting [17]) it was 40; in test [14] (setting [18]) it was 40. Also, the “Plant response rating, Surinam grass” value was determined as 20 in test [15] (Rate 62 g/ha, scale 0 to 100); 20 in test [15] (setting [16]); 30 in [15] (setting [17]); 30 in test [15] (setting [18]).
Regarding `CCCOc1cc(N2CCC(n3ccc(C(C)(C)C)n3)C2=O)ccc1C` (centres unmarked) [Compound 107], the “Plant response rating, Chickweed” value is 50 in [13] (Rate 62 g/ha, scale 0 to 100); 100 in [13] (setting [16]); 100 in [13] (setting [17]); 100 in test [13] (setting [18]). Also, the “Plant response rating, Cupgrass, Woolly” value in [14] (Rate 62 g/ha, scale 0 to 100) was found to be 0; in test [14] (setting [17]), 0; in test [14] (setting [18]) it was 0. Also, the “Plant response rating, Surinam grass” value turned out to be 0 in test [15] (Rate 62 g/ha, scale 0 to 100); 0 in [15] (setting [16]); 0 in test [15] (setting [17]); 0 in test [15] (setting [18]).
